The logP is the decadic logarithm of the partition coefficient of the neutral form, usually between octanol and water. A low value points to lower lipophilicity. Consider `COc1ccccc1N1CCN(CCOCc2ccc(F)cc2)CC1`, for which the logP came out at 3.6.
The value for `COc1ccccc1N1CCN(CCC=Cc2ccc(F)cc2)CC1` was 4.7.
The value for `COc1ccccc1N1CCN(CCCCc2ccc(F)cc2)CC1` was 4.8; that for `COc1ccccc1N1CCN(CCNC(=N)C2CCCCC2)CC1` was 3.4.
`COc1ccccc1N1CCN(CCNC(=O)c2ccc(F)cc2)CC1`: the logP came out at 2.5.
As for `COc1ccccc1N1CCN(CCNC(=O)c2ccc[nH]2)CC1`, the logP worked out at 1.6.
The value for `COc1ccccc1N1CCN(CCNC(=O)c2ccncn2)CC1` was 1.5; that for `COc1ccccc1N1CCN(CCCC(O)c2ccc(F)cc2)CC1` (configuration not stated) was 3.4.
The value for `COc1ccccc1N1CCN(CCCOc2ccc(F)cc2)CC1` was 4.1; that for `COc1ccccc1N1CCN(CCNC(=S)C2CCCCC2)CC1` was 3.7.
The molecule `COc1ccccc1N1CCN(CCNC(=O)c2cccnc2)CC1` gave a logP of 1.2.
The value for `COc1ccccc1N1CCN(CCNC(=O)c2cccs2)CC1` was 2; that for `COc1ccccc1N1CCN(CCNC(=O)C2CCCCC2)CC1` was 2.8; that for `COc1ccccc1N1CCN(CCCC(=O)c2ccc(F)cc2)CC1` was 3.6.
The value for `COc1ccccc1N1CCN(CCNC(=O)c2ccco2)CC1` was 1.6; that for `COc1ccccc1N1CCN(CCNC(=O)c2ccccc2)CC1` was 2.2.
The value for `COc1ccccc1N1CCN(CCNC(C)=O)CC1` was 0.5.

Source of the values: the OPERA property sets (Mansouri et al. 2018).
